Test results taken from patent publication US8557823B2, “Family of PFKFB3 inhibitors with anti-neoplastic activities” (Advanced Cancer Therapeutics, LLC, priority 2007, dated 2013).

Assays:
[1] = system: MDA-MB231 human breast adenocarcinoma tumors; assay: MDA-MB231 breast adenocarcinoma xenografts in Balb/c nude mice; assay type: in vivo; conditions: 0.07 mg/g IP, three daily injections followed by three days off
Experimental: FIG. 7B is a graph showing the effects of 3PO treatment on the growth of established MDA-MB231 breast adenocarcinoma tumor zenografts in Balb/c athymic mice. Tumors were measured daily using blunt end Vernier calipers, and mice with established tumors (130-190 mg) were blindly randomized into either a DMSO control group (•, n=14) or a 3PO treatment group (∘, n=13). Experimental mice were weighed and given intraperitoneal (i.p.) injections of either 50 μL DMSO or 0.07 mg/g 3PO in 50 μL DMSO according to a cyclical dosing regimen of three sequential daily injections followed by three off days for the duration of the study (14 days). Arrows (↓) represent control or 3PO administrations. […]
Exponentially growing MDA-MB231 and HL-60 cells were collected in appropriate medium, washed twice and resuspended in PBS at a concentration of 20×10^7 cells/mL. […] Body weight and tumor growth were monitored daily throughout the study. Tumor masses were determined by measurement with Vernier calipers using the formula: mass (mg)=[width (mm^2)×length (mm)]/2. […]
The first tumor model tested consisted of mouse Lewis Lung Carcinoma xenografts grown in C57/Blk6 mice. For this study, mice were given IP injections of either DMSO or the calculated dose of 1 once daily for the duration of the study (14 days). […]

[2] = system: PFKFB3 over-expressing Jurkat cells; assay: Growth inhibition of Jurkat cells over-expressing PFKFB3 (Tet-ON, doxycycline); assay type: cell-based; conditions: Homo sapiens, 48 hours
Experimental: FIG. 6D is a bar graph showing the anti-proliferative effects of 3PO in Jurkat cells engineered to over-express PFKFB3 through doxycylin treatment utilizing the Tet-on system (+PFKFB3, striped bars). Twenty-four hours prior to 3PO treatment, 1 μg/mL of doxycyclin is incubated with Jurkat cells containing a PFKFB3-expressing vector in order to induce PFKFB3 protein levels. Control cells (−PFKFB3, solid bars) containing an empty vector were similarly treated with doxycyclin and served as background PFKFB3 expression. Both cell types were subsequently incubated with increasing concentrations of 3PO (1, 3, 10, or 33 μM) or vehicle (V), and viable cells were analyzed after 48 hours. The bars represent the mean±STD of triplicate values from a representative experiment.
FLAG-PFKFB3 containing the complete PFKFB3 coding sequence and FLAG-epitope at its N-terminus was subcloned into the BamHI/HindIII restriction sites within the retroviral Tet response vector pRevTRE (Clontech, Mountain View, Calif., United States of America). Recombinant retrovirus was produced by Lipofectamine-mediated (Invitrogen, Carlsbad, Calif., United States of America) transfection of the pRevTRE-FLAG-PFKFB3 construct into PT67 packaging cell lines. […]
(§1) Cells were collected 48 hours post-treatment, and cell number and viability were determined by trypan blue exclusion. […]

NHBE-ht/LT/ras cells = assay: In vitro growth inhibition, transformed NHBE cells; assay type: cell-based, human
Experimental: The K562, HL-60, MDA-MB231, and melanoma (CRL-11174) human cancer cell lines were purchased from ATCC (American Tissue Type Culture Collection, Manassas, Va., United States of America). HeLa, A549, Lewis Lung Carcinoma, MDA-MB231, and melanoma cells were grown in Dulbecco's Modified Eagle Medium (DMEM) (Hyclone, Logan, Utah, United States of America) supplemented with 10% fetal bovine serum (Hyclone, Logan, Utah, United States of America) and 50 μg/mL gentamicin sulfate (Invitrogen, Carlsbad, Calif., United States of America). The HL-60, K562, and Jurkat cell lines were grown in RPMI-1640 medium (Hyclone, Logan, Utah, United States of America) supplemented with 10% fetal bovine serum and 50 μg/mL gentamicin sulfate. The primary Normal Human Bronchial Epithelial (NHBE) cells and cells that were immortalized with human telomerase (ht) and large T antigen (LT) and transformed with mutated ras (ht/LT/ras cells) were cultured in Bronchial Epithelial Cell Basal Growth Medium (Cambrex, Walkersville, Md., United States of America) supplemented with 52 μg/mL bovine pituitary extract, 0.5 μg/mL hydrocortisone, […], 0.5 μg/mL epinephrine, 10 μg/mL transferrin, 5 μg/mL insulin, 0.1 ng/mL retinoic acid, 6.5 ng/mL triiodothyronine, 50 μg/mL gentamycin, and 50 ng/mL amphotericin-B (SingleQuots, Cambrex, Walkersville, Md., United States of America). All cell lines were maintained under 5% CO2 at 37° C.
All cell lines were plated at 1×10^5 cells/well in the appropriate medium. For suspension cells, increasing concentrations of 1 were added immediately to the medium, whereas, compound 1 treatment was initiated the following day for adherent cell lines. For dose-dependent studies, compound 1 was added in increasing concentrations for 36 hours. For time-dependent studies, 10 μM of compound 1 was added at time 0, 4, 8, 16, 24, or 36 hours. […]
as §1

## O=C(/C=C/c1cccnc1)c1ccncc1 [Compound 1, 3-(3-pyridinyl)-1-(4-pyridinyl)-2-propen-1-one]
[1]
  maximum inhibition of xenograft growth compared to DMSO controls: 66%
[2]
  IC50: 19.3 µM
NHBE-ht/LT/ras cells; Homo sapiens, NHBE, 48 h
  IC50: 1.5 µM
NHBE-ht/LT/ras cells; transformed NHBE cells
  concentration at which treatment was completely cytotoxic: approximately 10 μM
  concentration at which treatment was cytostatic: below 1 μM
